Read-outs that look alike come from different tables or passages of the source. Each block holds one compound with its values, some of them ahead of it.
Key:
eyelashes = details: marketed eye drops for ocular hypertension and glaucoma; cited from earlier work
Male C3H/HeN mice [1] = experiment: Hair growth scoring after once daily topical application to the shaved back of mice for 30 days; details: for Scores of hair growth: 0.1 mL once daily on shaved area, individual animals
From the text: (§1) Male C3H/HeN mice of 7 weeks old (seven groups; three mice/group) were used. Following 1-week acclimation, hair on the back of mice was shaved. Two days after the shaving, applications of test compound (13,14-dihydro-15-keto-17-phenyl-18,19,20-trinor-PGF2α isopropyl ester), latanoprost(13,14-dihydro-17-phenyl-18,19,20-trinor-PGF2α isopropyl ester), and vehicle (70 w/w % EtOH) were initiated (Day 1). 0.005%, 0.01% or 0.03% of test compound, 0.005%, 0.01% or 0.03% of latanoprost, or vehicle were applied to the shaved area of the mice at a volume of 0.1 mL once daily for 30 days. The hair growth was scored according to the following criteria.
−: No hair growth observed
(§2) ±: Hair growth observed; less than 10% of shaving area
(§3) +: Hair growth observed; 10-30% of shaving area
(§4) ++: Hair growth observed; 30-50% of shaving area
(§5) +++: Hair growth observed; more than 50% of shaving area

Male C3H/HeN mice [2] = details: mouse, in vivo
From the text: as §1
−: No hair growth observed
as §2, §3, §4, §5

SMILES: CCCCCCCC(=O)CC[C@@H]1[C@@H](C/C=C\CCCC(=O)OC(C)C)[C@@H](O)C[C@H]1O [Rescula®, 13,14-dihydro-15-keto-20-ethyl-PGF2α isopropylester]
Eyelash hair growth (side effect of eye drops) (eyelashes): increases length of eyelashes

SMILES: CC(C)OC(=O)CCC/C=C\C[C@@H]1[C@@H](/C=C/[C@@H](O)COc2cccc(C(F)(F)F)c2)[C@H](O)C[C@@H]1O [travoprost, 16-(3-trifluoromethylphenoxy)-17,18,19,20-tetranor PGF2α isopropyl ester]
Eyelash hair growth (side effect of eye drops) (eyelashes): induce eyelash hair growth

SMILES: CCNC(=O)CCC/C=C\C[C@@H]1[C@@H](/C=C/[C@@H](O)CCc2ccccc2)[C@H](O)C[C@@H]1O [bimatoprost, 17-phenyl 18,19,20-trinor PGF2α-N-ethylamide]
Eyelash hair growth (side effect of eye drops) (eyelashes): induce eyelash hair growth

Scores of hair growth (Male C3H/HeN mice [1]; 0.005%, 19 days after first application): − | Scores of hair growth (Male C3H/HeN mice [1]; 0.005%, 22 days after first application): − | Scores of hair growth (Male C3H/HeN mice [1]; 0.005%, 23 days after first application): − | Scores of hair growth (Male C3H/HeN mice [1]; 0.005%, 24 days after first application): − | Scores of hair growth (Male C3H/HeN mice [1]; 0.005%, 25 days after first application): − | Scores of hair growth (Male C3H/HeN mice [1]; 0.005%, 26 days after first application): − | Scores of hair growth (Male C3H/HeN mice [1]; 0.005%, 29 days after first application): − | Scores of hair growth (Male C3H/HeN mice [1]; 0.005%, 30 days after first application): − | Scores of hair growth (Male C3H/HeN mice [1]; 0.01%, 19 days after first application): − | Scores of hair growth (Male C3H/HeN mice [1]; 0.01%, 22 days after first application): − | Scores of hair growth (Male C3H/HeN mice [1]; 0.01%, 23 days after first application): − | Scores of hair growth (Male C3H/HeN mice [1]; 0.01%, 24 days after first application): − | Scores of hair growth (Male C3H/HeN mice [1]; 0.01%, 25 days after first application): − | Scores of hair growth (Male C3H/HeN mice [1]; 0.01%, 26 days after first application): − | Scores of hair growth (Male C3H/HeN mice [1]; 0.01%, 29 days after first application): − | Scores of hair growth (Male C3H/HeN mice [1]; 0.01%, 30 days after first application): − | Scores of hair growth (Male C3H/HeN mice [1]; 0.03%, 19 days after first application): − | Scores of hair growth (Male C3H/HeN mice [1]; 0.03%, 22 days after first application): − | Scores of hair growth (Male C3H/HeN mice [1]; 0.03%, 23 days after first application): − | Scores of hair growth (Male C3H/HeN mice [1]; 0.03%, 24 days after first application): − | Scores of hair growth (Male C3H/HeN mice [1]; 0.03%, 25 days after first application): − | Scores of hair growth (Male C3H/HeN mice [1]; 0.03%, 26 days after first application): − | Scores of hair growth (Male C3H/HeN mice [1]; 0.03%, 29 days after first application): − | Scores of hair growth (Male C3H/HeN mice [1]; 0.03%, 30 days after first application): − | Effect on the hair growth (summary in words) (Male C3H/HeN mice [1]; any concentration tested (0.005%, 0.01%, 0.03%), once daily for 30 days): no effects on the hair growth
SMILES: CC(C)OC(=O)CCC/C=C\C[C@@H]1[C@@H](CCC(=O)CCc2ccccc2)[C@H](O)C[C@@H]1O [Test compound, 13,14-dihydro-15-keto-17-phenyl-18,19,20-trinor-PGF2α isopropyl ester]

Effect on the hair growth (summary in words) (Male C3H/HeN mice [2]): remarkable hair growth stimulation | Scores of hair growth (Male C3H/HeN mice [2]): −
SMILES: CC(C)OC(=O)CCC/C=C\C[C@@H]1[C@@H](CC[C@@H](O)CCc2ccccc2)[C@H](O)C[C@@H]1O [Latanoprost, 13,14-dihydro-17-phenyl-18,19,20-trinor-PGF2α isopropyl ester]
Eyelash hair growth (side effect of eye drops) (eyelashes): induce eyelash hair growth

— US20040225014A1, “Method for treating ocular hypertension and glaucoma” (SUCAMPO AG, priority 2003, published 2004)
